Target: T1, human α7 nAChR (Homo sapiens, UniProt P36544)
T1 construct: expressed in transfected cells; host or cells: GH4C1 cells derived from rat pituitary (ATCC CCL-82.2)
Assay: Evaluation of PAM activity with human α7 nACh receptor stably expressing cells (aequorin luminescence, FDSS7000)
Type: cell-based
Details: for α7PAM (%) @ 10 μmol/L / activity at 10 µM: test compound 10 μmol/L, ACh added at EC20, ratio of RLU (Max-Min) of test wells to control wells; for activity at 10 µM: read-out: α7PAM (%) @ 10 μmol/L
From the text: Human α7 nAChR stably expressing cells were generated and cultured. In detail, GH4C1 cells derived from rat pituitary (cat#CCL-82.2, ATCC, USA) were used as a host cell. PcDNA3.1Zeo vector containing a nucleotide sequence encoding a protein GenBank BAC81731 and pcDNA3.1 vector containing human α7 nAChR gene (cat#V790-20, invitrogen, Carlsbad, Calif., USA) were transfected to the cells to give aequorins and human α7 nAChR stably expressing cells respectively. The aequorins and human α7 nAChR stably expressing cells were screened with Zeocin (cat#R25001, invitrogen, Carlsbad, Calif., USA) and Geneticin (cat #10131-027, invitrogen, Carlsbad, Calif., USA) respectively.
The cells were cultured in F-10 Nutrient Mixture (Ham) medium (cat #11550-043, invitrogen, Carlsbad, Calif., USA) containing 2.5% fetal bovine serum (cat #2917354, ICN Biomedicals, Inc, USA), 15% inactivated horse serum (cat #26050-088, invitrogen, Carlsbad, Calif., USA), 1 μg/mL Geneticin, and 5 μg/mL Puromycin (cat #14861-84, invitrogen, Carlsbad, Calif., USA), in a Collagen Type 1-coated dish (cat #4030-010, iwaki, Tokyo, Japan). During the culture, the medium was replaced with fresh medium in every 2 to 3 days, and the cells were treated with TrypLE Express (cat #45604-021, invitrogen, Carlsbad, Calif., USA) to collect them in every 7 days. Thus, the cells were subcultured.
7 Days after subculturing, the cells were treated with TrypLE Express to collect them when they were about 80% confluent. The cells were suspended in a reaction medium containing Hanks (cat #14065-056, invitrogen, Carlsbad, Calif., USA)/20 mmol/L Hepes (cat #15630-080, invitrogen, Carlsbad, Calif., USA), Buffer (pH 7.4), F-10 Nutrient Mixture (Ham), and 0.1 mg/mL Geneticin, and the suspension was seeded in a 384-well plate (cat #781090, Greiner, Germany) at 20000 cells/25 μL per well.
On the next day after seeding, Viviren (cat#E649X, Promega, Madison, Wis., USA) was added to the medium so that the final concentration could be 4 μmol/L (15 μL/well). The plates were centrifuged and then placed in the dark for 4 hours at room temperature.
Each of the test compounds was dissolved in DMSO to prepare each test sample at a concentration of 1000-fold the final concentration. To the solution was added Hanks/20 mM HEPES/0.2% BSA (cat#A3803, Sigma, St. Louis, Mo., USA), and the concentration was adjusted to 6-fold the final concentration.
FDSS7000 (Hamamatsu Photonics) was used to detect the luminescence signal evoked by α7 nAChR stimulation. The cells and a luminescent substrate were put on a plate, and the test sample was added thereto. […] After the addition of ACh, the luminescence signal (the central wavelength: 465 nm) was measured for 138 seconds to calculate RLU (Max-Min). The ratio of the RLU (Max-Min) of the test-compound-containing wells to that of the control wells was defined as PAM activity.

T1 sequence (P36544 23-502): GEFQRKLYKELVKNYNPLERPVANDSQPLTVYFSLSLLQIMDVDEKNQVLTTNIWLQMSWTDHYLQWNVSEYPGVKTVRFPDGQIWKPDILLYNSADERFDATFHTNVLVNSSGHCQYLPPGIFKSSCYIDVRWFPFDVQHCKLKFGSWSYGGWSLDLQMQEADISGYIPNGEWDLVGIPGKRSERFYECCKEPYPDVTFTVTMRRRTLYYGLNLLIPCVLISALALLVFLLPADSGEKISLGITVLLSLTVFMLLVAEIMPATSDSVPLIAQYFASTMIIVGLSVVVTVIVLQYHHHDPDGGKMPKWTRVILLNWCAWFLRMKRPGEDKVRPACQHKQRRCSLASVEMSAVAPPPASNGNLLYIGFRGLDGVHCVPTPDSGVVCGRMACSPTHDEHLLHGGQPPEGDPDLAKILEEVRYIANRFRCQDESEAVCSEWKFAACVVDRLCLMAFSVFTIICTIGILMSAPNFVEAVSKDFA

α7PAM (%) @ 10 μmol/L | SMILES | other results
433% | CCc1ccc2c(c1)c(OC(C)C)nn2C1CCN(C(=O)NC2CCC(OC)CC2)CC1 (centres unmarked) [Example 59] | –
846% | CCOc1nn(C2CCN(C(=O)NC3CCCCC3)CC2)c2ccc(CC)cc12 [Example 60] | –
1092% | CCOc1nn(C2CCN(C(=O)NC3CCC(F)(F)CC3)CC2)c2ccc(CC)cc12 [Example 61] | –
653% | CCc1ccc2c(c1)c(OC(C)C)nn2C1CCN(C(=O)NC2CCC(F)(F)CC2)CC1 [Example 62] | –
385% | O=C(NC1CCOCC1)N1CCC(n2ncc3cc(Br)ccc32)CC1 [Example 65] | –
436% | COCc1nn(C2CCN(C(=O)NC3CCCC3)CC2)c2ccc(C)cc12 [Example 67] | –
430% | COCc1nn(C2CCN(C(=O)NC3CCCCC3)CC2)c2ccc(C)cc12 [Example 68] | –
242% | COCc1nn(C2CCN(C(=O)NC3CCC(OC)CC3)CC2)c2ccc(C)cc12 (centres unmarked) [Example 69] | –
– | O=C(NC1CCC(F)(F)CC1)N1CCC(n2ncc3cc(-c4ccc(F)cc4)ccc32)CC1 [Example 70, N-(4,4-difluorocyclohexyl)-4-(5-(4-fluorophenyl)-1H-indazol-1-yl)piperidine-1-carboxamide] | activity at 10 µM: 719%
763% | COC1CCC(NC(=O)N2CCC(n3ncc4cc(Br)ccc43)CC2)CC1 (centres unmarked) [Example 71] | –
453% | CCc1ccc2c(cnn2C2CCCN(C(=O)NC3CCC(F)(F)CC3)CC2)c1 (centres unmarked) [Example 73] | –
621% | O=C(NC1CCOCC1)N1CCC(n2ncc3cc(C4CC4)ccc32)CC1 [Example 75] | –
420% | CCCc1ccc2c(cnn2C2CCN(C(=O)NC3CCC(OC)CC3)CC2)c1 (centres unmarked) [Example 76] | –
1780% | O=C(NC1CCC(F)(F)CC1)N1CCC(n2ncc3cc(C4CC4)ccc32)CC1 [Example 77] | –
– | Cc1ccc2c(cnn2C2CCN(C(=O)N[C@@H]3CCCCC3(F)F)CC2)c1 [Example 78, (R)—N-(2,2-difluorocyclohexyl)-4-(5-methyl-1H-indazol-1-yl)piperidine-1-carboxamide] | activity at 10 µM: 987%
– | Cc1ccc2c(cnn2C2CCN(C(=O)N[C@@H]3CCCC3(F)F)CC2)c1 [Example 81, (R) —N-(2,2-difluorocyclopentyl)-4-(5-methyl-1H-indazol-1-yl)piperidine-1-carboxamide] | activity at 10 µM: 819%
888% | Cc1ccc2c(cnn2C2CCN(C(=O)NC3CCCC(F)(F)C3)CC2)c1 (centres unmarked) [Example 82] | –
420% | Cc1ccc2c(cnn2C2CCN(C(=O)NC3CCC(OCC(F)(F)F)CC3)CC2)c1 (centres unmarked) [Example 83] | –
179% | CCc1ccc2c(cnn2C2CCCN(C(=O)NC3CCC(OC)CC3)CC2)c1 (centres unmarked) [Example 84] | –
1081% | COc1ccc2c(cnn2C2CCN(C(=O)N[C@@H]3CCCCC3(F)F)CC2)c1 [Example 85] | –

α7PAM (%) @ 10 μmol/L | SMILES | other results
1481% | COc1ccc2c(cnn2C2CCN(C(=O)NC3CCCCC3(F)F)CC2)c1 (centres unmarked) [Example 86] | –
514% | COc1ccc2c(cnn2C2CCN(C(=O)NC3CCCC3(F)F)CC2)c1 (centres unmarked) [Example 87] | –
1063% | COc1ccc2c(cnn2C2CCN(C(=O)NC3CCCC3(F)F)CC2)c1 (centres unmarked) [Example 88] | –
1506% | COC1CCC(NC(=O)N2CCC(n3nc(C)c4cc(C)ccc43)CC2)CC1 (centres unmarked) [Example 89] | –
217% | COC1CCC(NC(=O)N2CCC(n3ncc4cc(C)ccc43)CC2)CC1 (centres unmarked) [Example 91] | –
356% | CCc1ccc2c(cnn2C2CCN(C(=O)NC3CCC(OC)CC3)CC2)c1 (centres unmarked) [Example 92] | –
934% | Cc1cccc2c1cnn2C1CCN(C(=O)NC2CCC(F)(F)CC2)CC1 [Example 93] | –
154% | COC1CCC(NC(=O)N2CCC(n3ncc4c(C)cccc43)CC2)CC1 (centres unmarked) [Example 94] | –
133% | COC1CCC(NC(=O)N2CCC(n3ncc4c(C)cccc43)CC2)CC1 (centres unmarked) [Example 95] | –
143% | CCOC1CCC(NC(=O)N2CCC(n3ncc4c(C)cccc43)CC2)CC1 (centres unmarked) [Example 96] | –
117% | Cc1cccc2c1cnn2C1CCN(C(=O)NC2CCC(OC(F)F)CC2)CC1 (centres unmarked) [Example 97] | –
89% | COC1CCC(NC(=O)N2CCC(n3ncc4c(Br)cccc43)CC2)CC1 (centres unmarked) [Example 98] | –
755% | CCc1cnc2c(cnn2C2CCN(C(=O)NC3CCC(F)(F)CC3)CC2)c1 [Example 99] | –
198% | CCc1cnc2c(cnn2C2CCN(C(=O)NC3CCC(OC)CC3)CC2)c1 (centres unmarked) [Example 100] | –
338% | CCc1cnc2c(cnn2C2CCN(C(=O)NC3CCOCC3)CC2)c1 [Example 101] | –
228% | O=C(C1CCOCC1)N1CCC(n2ncc3cc(Br)ccc32)CC1 [Example 102] | –
– | CC(C)Cc1ccc2c(cnn2C2CCN(C(=O)C3CCOCC3)CC2)c1 [Example 103, (4-(5-isobutyl-1H-indazol-1-yl)piperidin-1-yl)(tetrahydro-2H-pyran-4-yl)methanone] | activity at 10 µM: 281%
190% | O=C(C1CCOCC1)N1CCC(n2ncc3cc(F)ccc32)CC1 [Example 104] | –
338% | Cc1ccc2c(cnn2C2CCN(C(=O)C3CCCCC3)CC2)c1 [Example 105] | –
164% | Cc1ccc2c(cnn2C2CCN(C(=O)C3CCCC3)CC2)c1 [Example 106] | –

α7PAM (%) @ 10 μmol/L | SMILES | other results
159% | CC(C)c1ccc2c(cnn2C2CCN(C(=O)C3CCOCC3)CC2)c1 [Example 107] | –
207% | CCCc1ccc2c(cnn2C2CCN(C(=O)C3CCOCC3)CC2)c1 [Example 108] | –
267% | CCOc1ccc2c(cnn2C2CCN(C(=O)C3CCCCC3)CC2)c1 [Example 109] | –
291% | CCOc1ccc2c(cnn2C2CCN(C(=O)C3CCCC3)CC2)c1 [Example 110] | –
410% | CCc1ccc2c(cnn2C2CCN(C(=O)C3CCOCC3)CC2)c1 [Example 111] | –
265% | CCOc1ccc2c(cnn2C2CCN(C(=O)c3ccc(F)cc3)CC2)c1 [Example 112] | –
654% | CCc1ccc2c(cnn2C2CCN(C(=O)C3CCC(F)(F)CC3)CC2)c1 [Example 113] | –
189% | CCOc1ccc2c(cnn2C2CCN(C(=O)c3ccc(F)cn3)CC2)c1 [Example 114] | –
182% | CC(C)Oc1ccc2c(cnn2C2CCN(C(=O)c3ccc(F)cn3)CC2)c1 [Example 115] | –
279% | CC(C)Oc1ccc2c(cnn2C2CCN(C(=O)C3CCC(F)(F)CC3)CC2)c1 [Example 116] | –
209% | CCc1ccc2c(cnn2C2CCN(C(=O)C3CCC(OC)CC3)CC2)c1 (centres unmarked) [Example 117] | –
188% | CCc1ccc2c(cnn2C2CCN(C(=O)c3ccc(F)cn3)CC2)c1 [Example 118] | –
2154% | CCc1ccc2c(cnn2[C@H]2CC[C@@H](NC(=O)C3CCCCC3)CC2)c1 [Example 119] | PAM activity for α7 nAChR (result in words, ratio of RLU (Max-Min) to control wells, ACh EC20): stronger PAM activity than others
654% | CCc1ccc2c(cnn2[C@H]2CC[C@@H](NC(=O)C3CCOCC3)CC2)c1 [Example 120] | –
410% | CCc1ccc2c(cnn2[C@H]2CC[C@@H](NC(=O)[C@H]3CC[C@H](OC)CC3)CC2)c1 [Example 122] | –
1445% | CCc1ccc2c(cnn2[C@H]2CC[C@@H](NC(=O)C3CCCC3)CC2)c1 [Example 123] | –
1230% | CCc1ccc2c(cnn2[C@H]2CC[C@@H](NC(=O)[C@H]3CC[C@@H](OC)CC3)CC2)c1 [Example 124] | –
806% | CCc1ccc2c(cnn2[C@H]2CC[C@@H](C(=O)NC3CCCCC3)CC2)c1 [Example 127] | –

— US8765786B2, “1-substituted indazole derivative” (Dainippon Sumitomo Pharma Co., Ltd., priority 2012, dated 2014)
